Data as given in PubChem BioAssay AID463204 (Broad Institute, 2010).
Active and inactive are the calls of the source.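 How the source made its calls: active means AC50 no more than ten times the top concentration tested, that is within one log above it; inconclusive means flat curve fit with activity between 30% and 70%, or invalid poor fit; inactive means AC50 beyond ten times the top tested dose.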

Test system: S. cerevisiae Mot1-301 ts growth rescue, BacTiter-Glo ATP luminescence
Test: growth rescue of Mot1-301 ts yeast, confirmation, SUMOylation pathway inhibitor project, whole organism, S. cerevisiae, Mot1-301 ts mutant, luminescence, dose retest (AID 463204);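 further: growth at restrictive 38.5 degrees C of Mot1-301 OY566 strain; actives raise luminescence by restoring growth of the ts mutant at high temperature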

Compound | AC50
O=C(O)c1ccc(S(=O)(=O)N2CCN(c3ccccn3)CC2)cc1 | > 42 µM (inactive)
COc1ccccc1NC(=S)N(Cc1ccccc1)Cc1cccs1 | > 42 µM (inactive)
COc1ccc(NC(=O)c2ccc(-c3csc(C)n3)cc2)cc1 | > 42 µM (inactive)
NC(=O)c1cc(S(=O)(=O)N2CCCC2)ccc1OCc1ccc(F)cc1 | > 42 µM (inactive)
CCOC(=O)C1ON2CCCCC2C1(O)C(F)(F)F (stereo unspecified) | > 42 µM (inactive)
CCN1CCCC1CNC(=O)Cn1cnc2ccc(S(=O)(=O)N3CCC(C)CC3)cc2c1=O (stereo unspecified) | > 42 µM (inactive)
CCCCN(C)C(=O)CCC(=O)Nc1ccc2nc(N3CCN(C)CC3)cc(C)c2c1 | > 42 µM (inactive)
Cc1ccc(S(=O)(=O)N(C)CC(=O)O/N=C(\N)c2ccccn2)cc1 | > 42 µM (inactive)
CCOc1ccc(N(C(=O)C2CCCO2)C2C=CS(=O)(=O)C2)cc1 (stereo unspecified) | > 42 µM (inactive)
COc1ccccc1NC(=O)COC(=O)CC(C)(C)CC1=NS(=O)(=O)c2ccccc2N1 | > 42 µM (inactive)
Cc1ccc(N2CN(CCc3ccccc3)CNC2=S)cc1 | > 42 µM (inactive)
Cc1ccnc(NC(=O)CNC(=O)c2ccc(Br)o2)c1 | > 42 µM (inactive)
CCCCn1c(N)c(N(Cc2ccccc2OC)C(=O)c2c(CC)noc2C)c(=O)[nH]c1=O | > 42 µM (inactive)
O=C(CCSc1ccccc1)NNC(=O)c1ccccc1F | > 42 µM (inactive)
Cc1ccc(NS(=O)(=O)c2cc(C(=O)Nc3cccc([N+](=O)[O-])c3)ccc2C)cc1 | > 42 µM (inactive)
COCCN1C=C(C(=O)OC)C(c2cc3c(cc2Br)OCO3)C(C(=O)OC)=C1 | > 42 µM (inactive)
Cc1ccc(S(=O)(=O)NCCS(=O)(=O)N2CCN(c3ccc(F)cc3)CC2)cc1 | > 42 µM (inactive)
N#Cc1cc2c(nc1SC1CCCCC1O)CCCC2 (stereo unspecified) | > 42 µM (inactive)
Cc1c(Cl)cccc1NC(=O)Cn1c(CCC(=O)O)ccc1-c1ccccc1 | > 42 µM (inactive)
Cc1cc(C)cc(C(=O)N2CCC3(CC2)NCCc2[nH]cnc23)c1 | > 42 µM (inactive)
C/C(CC(=O)Nc1cccc(Cl)c1Cl)=N\NC(=O)c1ccccc1C | > 42 µM (inactive)
CN(C)c1ccc(C(=O)N2CCCC(CCC(=O)N3CCN(c4ccccn4)CC3)C2)cc1 (stereo unspecified) | > 42 µM (inactive)
Cc1cc(-c2ccccc2)n(-c2ccc(C(=O)NC(C)C)cc2)n1 | > 42 µM (inactive)
CCC(C)[C@H](NC(=O)OC(C)(C)C)C(=O)NCC1CCC(C(=O)N[C@@H](Cc2ccccc2)C(=O)O)CC1 (stereo partly specified) | > 42 µM (inactive)

Compound | AC50
O=C(CN1CCN(c2nc(-c3ccccc3)cs2)CC1)NNC(=O)c1ccc(Br)cc1 | > 42 µM (inactive)
COc1ccc(N2C(=O)CSC2c2ccc([N+](=O)[O-])cc2)cc1 (stereo unspecified) | > 42 µM (inactive)
COc1ccccc1NC(=S)N(Cc1ccco1)Cc1cc2cccc(C)c2[nH]c1=O | > 42 µM (inactive)
CS(=O)(=O)N(CC(=O)N1CCCC1)c1cccc(Cl)c1Cl | > 42 µM (inactive)
O=C(COC(=O)c1ccc([N+](=O)[O-])o1)Nc1ncc(Cl)cc1Cl | 9.48 µM
CC(C)CCn1c(C(C)O)nc2ccccc21 (stereo unspecified) | > 42 µM (inactive)
Cc1nc(N2CCN(c3ccccn3)CC2)c2c(C)c(C(=O)N3CCN(c4ccccc4F)CC3)sc2n1 | > 42 µM (inactive)
Cc1ccc(-n2c(SCC(=O)N(C)C3CCS(=O)(=O)C3)nc3ccccc3c2=O)cc1 (stereo unspecified) | > 42 µM (inactive)
CCCCn1c(/N=C/c2ccc3c(c2)OCO3)nc2ccccc21 | > 42 µM (inactive)
COc1ccccc1CNc1ncnc2nc[nH]c12 | > 42 µM (inactive)
COc1cc(/C=N/n2c(C3CCCCC3)n[nH]c2=S)cc(OC)c1O | > 42 µM (inactive)
COc1ccc(Cc2nnc(NCCO)[nH]c2=O)cc1 | > 42 µM (inactive)
Cc1ccc(S(=O)(=O)Cc2ccc(C(=O)N3CCN(c4ccccn4)CC3)o2)cc1 | > 42 µM (inactive)
O=C(CCC(F)(F)F)N1CCCC(CO)(CCc2ccccc2)C1 (stereo unspecified) | > 42 µM (inactive)
CC(C)(C)n1nnnc1C(c1ccc(Cl)cc1)N(Cc1cccnc1)Cc1ccco1 (stereo unspecified) | 7.98 µM
C/C(=N\NC(=O)c1ccc(Cl)cc1)c1cccnc1 | > 42 µM (inactive)
O=C(CCCc1nc(-c2ccc(Cl)cc2)no1)NC1CCCCC1 | > 42 µM (inactive)
O=C(CSc1ncnc2nc[nH]c12)Nc1ccccc1C(F)(F)F | > 42 µM (inactive)
O=C(CCSc1nnc(-c2ccncc2)o1)Nc1ccc(Cl)cc1 | > 42 µM (inactive)
CC(C)Sc1ccc(C(=O)Nc2ccc(F)cc2F)cn1 | > 42 µM (inactive)
COc1ccccc1N1C(=O)c2ccccc2NC1C(OC)OC (stereo unspecified) | > 42 µM (inactive)
COC(=O)c1cccc(NC(=O)c2ccc[n+]([O-])c2)c1 | > 42 µM (inactive)
Nc1ncnc2nc(SCC(=O)N3CCN(c4ccccc4)CC3)[nH]c12 | > 42 µM (inactive)
CCNC(=O)NC(C(=O)OC)C12CC3CC(CC(C3)C1)C2 (stereo unspecified) | > 42 µM (inactive)

Compound | AC50
NS(=O)(=O)c1cccc(NC(=O)c2cccnc2Oc2ccccc2)c1 | > 42 µM (inactive)
CCCCSCCCNC(=O)Nc1cccc(OC)c1 | > 42 µM (inactive)
O=C1c2nccnc2C(=O)N1c1ccc(C(F)(F)F)cc1 | > 42 µM (inactive)
CC1CCCN(C(=O)Cc2ccc(F)cc2)C1 (stereo unspecified) | > 42 µM (inactive)
CSc1nncc(/C(C)=N\Nc2cccc(C)c2)n1 | > 42 µM (inactive)
CC(NC(=O)c1cnc2n(c1=O)CCS2)c1ccccc1 (stereo unspecified) | > 42 µM (inactive)
COc1ccc(S(=O)(=O)NCC(=O)N(CC(=O)NCc2ccco2)Cc2ccccc2)cc1 | > 42 µM (inactive)
CCCCC1=CC2=CC(=O)C(C)(OC(=O)CC)C(=O)C2=CN1CCCOC(C)C (stereo unspecified) | > 42 µM (inactive)
Cc1ccc(NC(=O)C(CC(C)C)NC(=O)C2CCC(C)CC2)nc1 (stereo unspecified) | > 42 µM (inactive)
CC(C)(C)C(=O)NC1(C(F)(F)F)NC(=O)N(c2ccccc2F)C1=O (stereo unspecified) | > 42 µM (inactive)
CCCc1nc2c(nnn2Cc2ccccc2F)c(=O)[nH]1 | > 42 µM (inactive)
O=C(CSc1nnc(-c2cccs2)n1-c1ccccc1)c1ccc2c(c1)OCCO2 | > 42 µM (inactive)
CC1=C(C(=O)N2CCOCC2)C(c2ccc(O)cc2)NC(=S)N1 (stereo unspecified) | > 42 µM (inactive)
O=C(c1cc(N2C(=O)C3C4CCC(C4)C3C2=O)ccc1Cl)N1CCN(c2ccccc2)CC1 (stereo unspecified) | > 42 µM (inactive)
CC(C)CCNC(=O)Cn1c(=O)oc2cc(S(=O)(=O)N3CC(C)CC(C)C3)ccc21 (stereo unspecified) | > 42 µM (inactive)
CC(=O)c1ccc(N=C2SCCCN2C(=O)C2CCCC2)cc1 | > 42 µM (inactive)
N#CC1=C(N)Nc2ncnn2C1c1ccc([N+](=O)[O-])cc1 (stereo unspecified) | > 42 µM (inactive)
Cc1noc(C)c1S(=O)(=O)N1CCCC(C(=O)NCC2CCCO2)C1 (stereo unspecified) | > 42 µM (inactive)
COc1cc(NC(=O)C2=CC(c3ccco3)=NS(=O)(=O)N2C)cc(OC)c1OC | > 42 µM (inactive)
Fc1ccc(-c2nnc3ccc(N4CCCC4)nn23)cc1 | > 42 µM (inactive)
O=C(O)/C=C\C(=O)NC1CCCCC1 | > 42 µM (inactive)
O=C(Nc1ccc2oc(-c3ccccc3F)nc2c1)c1ncn[nH]1 | > 42 µM (inactive)
COc1cc(NC(=S)N2CCN(C(=O)C3CCCO3)CC2)c(OC)cc1Cl (stereo unspecified) | > 42 µM (inactive)
